Experimental data taken from PubChem BioAssay (NCI).
“And” between values parts separate entries of the source, which are not always exact repeats. Equal entries are not always repeated.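 Cultured in 96-well plates, cells were exposed to test compound for 48 hours across five concentrations. GI50: concentration for 50% inhibition of growth. Definition used: TGI = concentration required for complete inhibition of growth.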

Columns and labels:
Experiment in all cases: NCI tumour cell line growth inhibition, 48 h
786-0 renal = test system: 786-0 renal
A498 renal = test system: A498 renal
A549 NSCLC = test system: A549 NSCLC
ACHN renal = test system: ACHN renal
BT-549 breast = test system: BT-549 breast
CAKI-1 renal = test system: CAKI-1 renal
CCRF-CEM leukemia = test system: CCRF-CEM leukemia
COLO 205 colon = test system: COLO 205 colon
DLD-1 colon = test system: DLD-1 colon
DMS 114 small cell lung = test system: DMS 114 small cell lung
DMS 273 small cell lung = test system: DMS 273 small cell lung
DU-145 prostate = test system: DU-145 prostate
EKVX NSCLC = test system: EKVX NSCLC
HCC-2998 colon = test system: HCC-2998 colon
HCT-116 colon = test system: HCT-116 colon
HCT-15 colon = test system: HCT-15 colon
HL-60(TB) leukemia = test system: HL-60(TB) leukemia
HOP-18 NSCLC = test system: HOP-18 NSCLC
HOP-62 NSCLC = test system: HOP-62 NSCLC
HOP-92 NSCLC = test system: HOP-92 NSCLC
HS 578T breast = test system: HS 578T breast
HT29 colon = test system: HT29 colon
IGROV1 ovarian = test system: IGROV1 ovarian
K-562 leukemia = test system: K-562 leukemia
KM12 colon = test system: KM12 colon
KM20L2 colon = test system: KM20L2 colon
LOX IMVI melanoma = test system: LOX IMVI melanoma
LXFL 529 NSCLC = test system: LXFL 529 NSCLC
M14 melanoma = test system: M14 melanoma
M19-MEL melanoma = test system: M19-MEL melanoma
MALME-3M melanoma = test system: MALME-3M melanoma
MCF7 breast = test system: MCF7 breast
MDA-MB-435 = test system: MDA-MB-435
MDA-N = test system: MDA-N
MOLT-4 leukemia = test system: MOLT-4 leukemia
NCI-H226 lung = test system: NCI-H226 lung
NCI-H23 lung = test system: NCI-H23 lung
NCI-H460 lung = test system: NCI-H460 lung
NCI-H522 lung = test system: NCI-H522 lung
NCI/ADR-RES ovarian = test system: NCI/ADR-RES ovarian
OVCAR-3 ovarian = test system: OVCAR-3 ovarian
OVCAR-4 ovarian = test system: OVCAR-4 ovarian
OVCAR-5 ovarian = test system: OVCAR-5 ovarian
OVCAR-8 ovarian = test system: OVCAR-8 ovarian
PC-3 prostate = test system: PC-3 prostate
RPMI-8226 leukemia = test system: RPMI-8226 leukemia
RXF 393 renal = test system: RXF 393 renal
RXF-631 renal = test system: RXF-631 renal
SF-268 CNS = test system: SF-268 CNS
SF-295 CNS = test system: SF-295 CNS
SF-539 CNS = test system: SF-539 CNS
SK-MEL-2 melanoma = test system: SK-MEL-2 melanoma
SK-MEL-28 melanoma = test system: SK-MEL-28 melanoma
SK-MEL-5 melanoma = test system: SK-MEL-5 melanoma
SK-OV-3 ovarian = test system: SK-OV-3 ovarian
SN12C renal = test system: SN12C renal
SNB-19 CNS = test system: SNB-19 CNS
SNB-75 CNS = test system: SNB-75 CNS
SNB-78 CNS = test system: SNB-78 CNS
SR leukemia = test system: SR leukemia
SW-620 colon = test system: SW-620 colon
T-47D breast = test system: T-47D breast
TK-10 renal = test system: TK-10 renal
U251 CNS = test system: U251 CNS
UACC-257 melanoma = test system: UACC-257 melanoma
UACC-62 melanoma = test system: UACC-62 melanoma
UO-31 renal = test system: UO-31 renal

## CC(=O)OCC1OC(n2c(=S)n(-c3ccc([N+](=O)[O-])cc3)c(=O)c3ccccc32)C(OC(C)=O)C(OC(C)=O)C1OC(C)=O (stereo not given)
786-0 renal
  GI50: 17.9 µM
  TGI: 45.6 µM and 39 µM
A498 renal
  GI50: 21.9 µM
  TGI: > 76.2 µM and 53.6 µM
A549 NSCLC
  GI50: 23.1 µM and 32 µM
  TGI: > 100 µM
ACHN renal
  GI50: 20.3 µM and 29.7 µM
  TGI: 97.9 µM and > 100 µM
BT-549 breast
  TGI: 26.7 µM
CAKI-1 renal
  GI50: 25.3 µM and 35.9 µM
  TGI: > 100 µM
CCRF-CEM leukemia
  GI50: 5.11 µM and 15.4 µM
  TGI: 96.9 µM and > 100 µM
COLO 205 colon
  GI50: 31.2 µM
  TGI: > 100 µM
DLD-1 colon
  GI50: 21.9 µM and 30.4 µM
  TGI: > 100 µM
DMS 114 small cell lung
  GI50: 23.7 µM and 18.1 µM
  TGI: > 100 µM and 53.8 µM
DMS 273 small cell lung
  TGI: 57.3 µM
DU-145 prostate
  TGI: > 100 µM
EKVX NSCLC
  GI50: 18.9 µM and 28.2 µM
  TGI: > 70 µM and 57.4 µM
HCC-2998 colon
  GI50: 26.8 µM and 20.8 µM
  TGI: 61.4 µM and 46.6 µM
HCT-116 colon
  GI50: 18.1 µM and 25.2 µM
  TGI: > 100 µM
HCT-15 colon
  TGI: > 100 µM
HL-60(TB) leukemia
  GI50: 4.13 µM and 25.2 µM
  TGI: 29.4 µM and 59.1 µM
HOP-18 NSCLC
  TGI: 64.4 µM
HOP-62 NSCLC
  TGI: 53.7 µM and 54.7 µM
HOP-92 NSCLC
  GI50: 21.9 µM
  TGI: > 91.6 µM and 47.4 µM
HS 578T breast
  TGI: 68.5 µM
HT29 colon
  TGI: > 100 µM
IGROV1 ovarian
  GI50: 29.2 µM and 20.4 µM
  TGI: > 71 µM and 54.5 µM
K-562 leukemia
  GI50: 10.7 µM and 27.2 µM
  TGI: > 100 µM
KM12 colon
  GI50: 25.5 µM and 17.4 µM
  TGI: > 75.4 µM and 46.9 µM
KM20L2 colon
  TGI: > 100 µM and 87.7 µM
LOX IMVI melanoma
  TGI: 51.8 µM and 31.5 µM
LXFL 529 NSCLC
  GI50: 11.3 µM and 17.4 µM
  TGI: 39.9 µM and 50.6 µM
M14 melanoma
  GI50: 16 µM and 30.7 µM
  TGI: 48.8 µM and > 100 µM
M19-MEL melanoma
  GI50: 29.7 µM and 16.8 µM
  TGI: > 100 µM and 55.4 µM
MALME-3M melanoma
  TGI: 38.4 µM
MCF7 breast
  TGI: 52.6 µM
MDA-MB-435
  TGI: > 100 µM
MDA-N
  TGI: 82.3 µM
MOLT-4 leukemia
  TGI: > 95.1 µM
NCI-H226 lung
  GI50: 10.1 µM and 20.4 µM
  TGI: 58.4 µM and 49 µM
NCI-H23 lung
  TGI: > 83.2 µM and 46.4 µM
NCI-H460 lung
  TGI: > 69.8 µM and 68.2 µM
NCI-H522 lung
  TGI: 45.3 µM and 33.7 µM
NCI/ADR-RES ovarian
  TGI: 95.2 µM
OVCAR-3 ovarian
  GI50: 20 µM
  TGI: 47.5 µM and 49.8 µM
OVCAR-4 ovarian
  TGI: 60.3 µM and 40.9 µM
OVCAR-5 ovarian
  GI50: 32.2 µM and > 100 µM
  TGI: > 100 µM
OVCAR-8 ovarian
  TGI: 63.5 µM and 47.6 µM
PC-3 prostate
  TGI: 39.9 µM
RPMI-8226 leukemia
  GI50: 4.41 µM and 19.9 µM
  TGI: 17.8 µM and > 100 µM
RXF 393 renal
  GI50: 4.61 µM and 14.3 µM
  TGI: 17.1 µM and 29.6 µM
RXF-631 renal
  TGI: 57.7 µM and 51 µM
SF-268 CNS
  TGI: 62.1 µM and 44.7 µM
SF-295 CNS
  TGI: > 59.8 µM and 62.3 µM
SF-539 CNS
  TGI: 36 µM and 29.7 µM
SK-MEL-2 melanoma
  GI50: 12 µM and 22.5 µM
  TGI: 17.4 µM and 58.8 µM
SK-MEL-28 melanoma
  GI50: 31 µM and 20.7 µM
  TGI: > 82.5 µM and 59.7 µM
SK-MEL-5 melanoma
  GI50: 8.06 µM and 25.6 µM
  TGI: 23.3 µM and > 100 µM
SK-OV-3 ovarian
  TGI: 60.1 µM and 50.1 µM
SN12C renal
  TGI: 70.1 µM and 44.4 µM
SNB-19 CNS
  GI50: 24.4 µM
  TGI: 47.5 µM and 69.4 µM
SNB-75 CNS
  GI50: 7.28 µM and 19 µM
  TGI: 51 µM and 41.2 µM
SNB-78 CNS
  GI50: 34.8 µM and 24.1 µM
  TGI: > 100 µM and 74.5 µM
SR leukemia
  GI50: 4.67 µM
  TGI: > 100 µM
SW-620 colon
  GI50: 18 µM and 30.4 µM
  TGI: > 100 µM
T-47D breast
  TGI: 74.3 µM
TK-10 renal
  GI50: 19.9 µM and 40.3 µM
  TGI: 65.2 µM and 75.1 µM
U251 CNS
  TGI: 42 µM and 37.8 µM
UACC-257 melanoma
  GI50: 13 µM and 28.3 µM
  TGI: 38.1 µM and 97.3 µM
UACC-62 melanoma
  GI50: 17.6 µM
  TGI: 34 µM and 40.7 µM
UO-31 renal
  GI50: 12 µM and 23.2 µM
  TGI: > 57.5 µM and 60.1 µM

## OCC1O[C@H](O[C@@H]2CCCN3CC(O)C(O)[C@@H]23)C(O)C(O)C1O (stereo not given in full)
A498 renal
  TGI: > 100 µM
A549 NSCLC
  TGI: > 100 µM
ACHN renal
  TGI: > 100 µM
CAKI-1 renal
  TGI: > 100 µM
CCRF-CEM leukemia
  TGI: > 100 µM
COLO 205 colon
  TGI: > 100 µM
DLD-1 colon
  TGI: > 100 µM
DMS 273 small cell lung
  TGI: > 100 µM
EKVX NSCLC
  TGI: > 100 µM
HCC-2998 colon
  TGI: > 100 µM
HCT-116 colon
  TGI: > 100 µM
HCT-15 colon
  TGI: > 100 µM
HL-60(TB) leukemia
  TGI: > 100 µM
HOP-18 NSCLC
  TGI: > 100 µM
HOP-62 NSCLC
  TGI: > 100 µM
HOP-92 NSCLC
  TGI: > 100 µM
HT29 colon
  TGI: > 100 µM
IGROV1 ovarian
  TGI: > 100 µM
K-562 leukemia
  TGI: > 100 µM
KM12 colon
  TGI: > 100 µM
KM20L2 colon
  TGI: > 100 µM
LXFL 529 NSCLC
  TGI: > 100 µM
M14 melanoma
  TGI: > 100 µM
M19-MEL melanoma
  TGI: > 100 µM
MALME-3M melanoma
  TGI: > 100 µM
MOLT-4 leukemia
  TGI: > 100 µM
NCI-H226 lung
  TGI: > 100 µM
NCI-H23 lung
  TGI: > 100 µM
NCI-H522 lung
  TGI: > 100 µM
OVCAR-3 ovarian
  TGI: > 100 µM
OVCAR-4 ovarian
  TGI: > 100 µM
OVCAR-5 ovarian
  TGI: > 100 µM
OVCAR-8 ovarian
  TGI: > 100 µM
RXF-631 renal
  TGI: > 100 µM
SF-268 CNS
  TGI: > 100 µM
SF-295 CNS
  TGI: > 100 µM
SF-539 CNS
  TGI: > 100 µM
SK-MEL-2 melanoma
  TGI: > 100 µM
SK-MEL-28 melanoma
  TGI: > 100 µM
SK-MEL-5 melanoma
  TGI: > 100 µM
SK-OV-3 ovarian
  TGI: > 100 µM
SN12C renal
  TGI: > 100 µM
SNB-75 CNS
  TGI: > 100 µM
SNB-78 CNS
  TGI: > 100 µM
SR leukemia
  TGI: > 100 µM
SW-620 colon
  TGI: > 100 µM
TK-10 renal
  TGI: > 100 µM
U251 CNS
  TGI: > 100 µM
UACC-257 melanoma
  TGI: > 100 µM
UACC-62 melanoma
  TGI: > 100 µM
UO-31 renal
  TGI: > 100 µM
